“Also recorded” adds a separate entry of the source.
Legend:
[1] = pH of approximately 2; over the pH range of 1.4 to 9.6; cited from earlier work
[2] = Phase 1 study: pharmacokinetic analysis of plasma (LC-MS/MS); type: in vivo, patients
Experimental: Pharmacokinetic analysis: Whole-blood samples for plasma were collected at prescheduled time points for pharmacokinetic (PK) analysis. Plasma levels of erlotinib were determined using a validated liquid chromatography-tandem mass spectrometry assay. […] MS detection was using an AB SCIEX API 4000 triple quadrupole mass spectrometer operating in positive ion electrospray ionization (ESI) mode. Standard PK parameters were calculated using a noncompartmental method (WiNNonlin, Pharsight).

[3] = Phase 1 dose-escalation study of pulse-continuous erlotinib: DLT, MTD, adverse events
Experimental: (§2) Toxicity assessments: Patients were assessed five times during cycle 1 (28 days) and then every 21 days thereafter. Patient history, physical examination, complete blood count and serum chemistries were performed at each visit. Toxicity was graded according to the National Cancer Institute Common Terminology Criteria for Adverse Events (NCI CTCAE), version 4.

brain metastases = assay: Phase 1 study of pulse-continuous erlotinib: central nervous system activity; type: in vivo, patients
Description: (§1) The study was registered at clinicaltrials.gov (NCT01967095). […] All patients provided written informed consent.
Central nervous system activity: A brain MRI was required at enrollment.

[4] = cited from earlier work
[5] = in vivo
Experimental: as §2

[6] = cited from earlier work; remark: listed apart in the source
EGFR-mutant lung cancers = assay: Phase 1 study of pulse-continuous erlotinib: response (RECIST 1.1) and progression-free survival; type: in vivo, patients
Experimental: as §1
Prior cytotoxic chemotherapy was allowed. Patients were required to have measurable disease per RECIST (Response Evaluation Criteria in Solid Tumours), version 1.1). […] Patients with clinically stable brain metastases, either treated or untreated, were eligible.
Response assessments: Response to therapy was assessed by interval imaging every 6 weeks with a CT scan with response evaluated per RECIST 1.1. After six cycles on treatment, patients could reduce the radiographic assessments to every 4 cycles (12 weeks).
Statistical Analysis: Descriptive statistics were used to summarize the clinical characteristics of the patients. Progression-free survival was estimated using the Kaplan-Meier method, and defined as the time from start of study therapy until progression or death. […] Response rates were calculated using binomial proportions and exact 95% CIs. All statistical analyses were performed using R 3.2.2 (R Development Core Team) including the “survival” and “Hmisc” packages.

[7] = test system: EGFR-mutant lung cancers with CNS involvement; details: median dose erlotinib 1500 mg once weekly (Grommes et al.); cited from earlier work
[8] = erlotinib 1500 mg once weekly (Clarke et al.)

## C#Cc1cccc(Nc2ncnc3cc(OCCOC)c(OCCOC)cc23)c1.Cl [Erlotinib hydrochloride]
[1]
  maximal aqueous solubility: approximately 0.4 mg/mL

## C#Cc1cccc(Nc2ncnc3cc(OCCOC)c(OCCO)cc23)c1 [OSI-420]
[2]; in vivo
  dose-dependence of metabolite with increasing pulse doses of erlotinib: no significant dose-dependence

## C#Cc1cccc(Nc2ncnc3cc(OCCOC)c(OCCOC)cc23)c1 [erlotinib, N-(3-ethynylphenyl)-6,7-bis(2-methoxyethoxy)-4-quinazolinamine]
[3]; all 34 patients
  deaths on study: no deaths
  grade four or five toxicities: No grade four or five toxicities
[3]; pulse on days 1 and 2 with 50 mg erlotinib on days 3 to 7
  MTD (pulse dose): 1200 mg
Brain metastases; 6 patients with untreated brain metastases
  patients with evidence of tumor regression in the CNS: 6
Brain metastases; 16 patients with CNS imaging within three months of coming off study for progression
  radiographic evidence of new or progressing brain metastases: none
Brain metastases; all patients
  CNS progression on study treatment: none of the patients; also recorded: No patients
[2]; 600 mg to 1,350 mg, Cycle 1
  change of peak plasma concentration with increasing pulse doses: no significant increases
[2]; 4 hr post-administration, Week 2
  range of peak plasma concentration: 2,600-9355 ng/mL
[2]; 4 hr post-administration, after the second day of weekly pulse dose at Week 2
  median peak plasma concentration: 5,393 ng/mL
[2]; before the pulse dosing at the start of week 4
  median plasma trough concentration: 435 ng/mL
[2]; start of week 4
  median plasma trough concentration: 1.1 µM
  range of plasma trough concentration: 29 to 1655 ng/mL
[4]; once weekly, unselected patients with advanced lung cancers (Milton et al.), MTD not reached
  maximum tolerated dose (MTD): ≥ 2000 mg
[4]; twice-weekly pulse dose (Chia et al.), DLT of rash at higher dose levels
  MTD: 1000 mg
[5]; human
  ALT elevated Grade 1 (% of patients): (18%)
  ALT elevated Grade 1 (patients): 6
  ALT elevated Grade 2 (% of patients): (3%)
  ALT elevated Grade 2 (patients): 1
  ALT elevated Grade 3 (% of patients): (3%)
  ALT elevated Grade 3 (patients): 1
  ALT elevated Grade 4 (patients): 0
  ALT elevated Total (any grade) (% of patients): (24%)
  ALT elevated Total (any grade) (patients): 8
  AST increased Grade 1 (% of patients): (15%)
  AST increased Grade 1 (patients): 5
  AST increased Grade 2 (% of patients): (3%)
  AST increased Grade 2 (patients): 1
  AST increased Grade 3 (patients): 0
  AST increased Grade 4 (patients): 0
  AST increased Total (any grade) (% of patients): (18%)
  AST increased Total (any grade) (patients): 6
  Alopecia Grade 1 (% of patients): (21%)
  Alopecia Grade 1 (patients): 7
  Alopecia Grade 2 (patients): 0
  Alopecia Grade 3 (patients): 0
  Alopecia Grade 4 (patients): 0
  Alopecia Total (any grade) (% of patients): (21%)
  Alopecia Total (any grade) (patients): 7
  Anemia Grade 1 (% of patients): (6%)
  Anemia Grade 1 (patients): 2
  Anemia Grade 2 (% of patients): (3%)
  Anemia Grade 2 (patients): 1
  Anemia Grade 3 (% of patients): (3%)
  Anemia Grade 3 (patients): 1
  Anemia Grade 4 (patients): 0
  Anemia Total (any grade) (% of patients): (12%)
  Anemia Total (any grade) (patients): 4
  Anorexia Grade 1 (% of patients): (9%)
  Anorexia Grade 1 (patients): 3
  Anorexia Grade 2 (% of patients): (6%)
  Anorexia Grade 2 (patients): 2
  Anorexia Grade 3 (patients): 0
  Anorexia Grade 4 (patients): 0
  Anorexia Total (any grade) (% of patients): (15%)
  Anorexia Total (any grade) (patients): 5
  Bilirubin increased Grade 1 (% of patients): (12%)
  Bilirubin increased Grade 1 (patients): 4
  Bilirubin increased Grade 2 (% of patients): (15%)
  Bilirubin increased Grade 2 (patients): 5
  Bilirubin increased Grade 3 (% of patients): (6%)
  Bilirubin increased Grade 3 (patients): 2
  Bilirubin increased Grade 4 (patients): 0
  Bilirubin increased Total (any grade) (% of patients): (32%)
  Bilirubin increased Total (any grade) (patients): 11
  Diarrhea Grade 1 (% of patients): (71%)
  Diarrhea Grade 1 (patients): 24
  Diarrhea Grade 2 (% of patients): (3%)
  Diarrhea Grade 2 (patients): 1
  Diarrhea Grade 3 (% of patients): (12%)
  Diarrhea Grade 3 (patients): 4
  Diarrhea Grade 4 (patients): 0
  Diarrhea Total (any grade) (% of patients): (85%)
  Diarrhea Total (any grade) (patients): 29
  Dry skin Grade 1 (% of patients): (29%)
  Dry skin Grade 1 (patients): 10
  Dry skin Grade 2 (patients): 0
  Dry skin Grade 3 (patients): 0
  Dry skin Grade 4 (patients): 0
  Dry skin Total (any grade) (% of patients): (29%)
  Dry skin Total (any grade) (patients): 10
  Fatigue Grade 1 (% of patients): (24%)
  Fatigue Grade 1 (patients): 8
  Fatigue Grade 2 (% of patients): (12%)
  Fatigue Grade 2 (patients): 4
  Fatigue Grade 3 (patients): 0
  Fatigue Grade 4 (patients): 0
  Fatigue Total (any grade) (% of patients): (35%)
  Fatigue Total (any grade) (patients): 12
  Mucositis Grade 1 (% of patients): (24%)
  Mucositis Grade 1 (patients): 8
  Mucositis Grade 2 (% of patients): (9%)
  Mucositis Grade 2 (patients): 3
  Mucositis Grade 3 (% of patients): (3%)
  Mucositis Grade 3 (patients): 1
  Mucositis Grade 4 (patients): 0
  Mucositis Total (any grade) (% of patients): (35%)
  Mucositis Total (any grade) (patients): 12
  Nausea Grade 1 (% of patients): (29%)
  Nausea Grade 1 (patients): 10
  Nausea Grade 2 (% of patients): (9%)
  Nausea Grade 2 (patients): 3
  Nausea Grade 3 (% of patients): (6%)
  Nausea Grade 3 (patients): 2
  Nausea Grade 4 (patients): 0
  Nausea Total (any grade) (% of patients): (44%)
  Nausea Total (any grade) (patients): 15
  Paronychia Grade 1 (% of patients): (12%)
  Paronychia Grade 1 (patients): 4
  Paronychia Grade 2 (% of patients): (6%)
  Paronychia Grade 2 (patients): 2
  Paronychia Grade 3 (patients): 0
  Paronychia Grade 4 (patients): 0
  Paronychia Total (any grade) (% of patients): (18%)
  Paronychia Total (any grade) (patients): 6
  Pruritis Grade 1 (% of patients): (32%)
  Pruritis Grade 1 (patients): 11
  Pruritis Grade 2 (patients): 0
  Pruritis Grade 3 (patients): 0
  Pruritis Grade 4 (patients): 0
  Pruritis Total (any grade) (% of patients): (32%)
  Pruritis Total (any grade) (patients): 11
  Rash Grade 1 (% of patients): (62%)
  Rash Grade 1 (patients): 21
  Rash Grade 2 (% of patients): (24%)
  Rash Grade 2 (patients): 8
  Rash Grade 3 (% of patients): (3%)
  Rash Grade 3 (patients): 1
  Rash Grade 4 (patients): 0
  Rash Total (any grade) (% of patients): (88%)
  Rash Total (any grade) (patients): 30
  Vomiting Grade 1 (% of patients): (26%)
  Vomiting Grade 1 (patients): 9
  Vomiting Grade 2 (% of patients): (3%)
  Vomiting Grade 2 (patients): 1
  Vomiting Grade 3 (% of patients): (3%)
  Vomiting Grade 3 (patients): 1
  Vomiting Grade 4 (patients): 0
  Vomiting Total (any grade) (% of patients): (32%)
  Vomiting Total (any grade) (patients): 11
  patients removed for diarrhea: 2
  patients removed for hyperbilirubinemia: 1
  patients removed for mucositis: 1
  patients removed for possible pneumonitis: 1
  patients removed for transaminitis: 1
[5]
  patients removed from the study for toxicity: Six
  patients requiring a dose reduction of the pulse dose: three of sixteen
  tolerability: well tolerated
[6]; Togashi et al.
  cerebrospinal fluid (CSF) concentration as % of plasma concentration: 3-5%
[6]; [8]
  concurrent CSF concentration: 120 nM
  peak plasma concentration: 11,300 nM
EGFR-mutant lung cancers; 34 patients
  patients with complete response: one
  patients with confirmed partial responses: Twenty-four
EGFR-mutant lung cancers; 95% CI 5.8-15.4 months
  median progression-free survival: 9.9 months
EGFR-mutant lung cancers; intent to treat, 34 patients, 95% CI 60-84%
  overall response rate: 74%
EGFR-mutant lung cancers; patients with radiographic assessment
  change in the sum of target lesions: All patients had a decrease
[7]
  patients with partial response in the CNS: Six of nine
